The values that follow come from BindingDB's records for doi:10.7270/Q2697202 (Nmmlsc, 2008).

The target of this assay is Induced myeloid leukemia cell differentiation protein Mcl-1 (Homo sapiens, UniProt Q07820). Briefly: Mcl-1/Bim interaction regulators – biochemical, bead-based flow cytometry, multiplexed, human, dose response (AID 1329).
[1] abbreviates: inactive by the depositor's call.

Sequence of Induced myeloid leukemia cell differentiation protein Mcl-1 (Q07820 whole entry): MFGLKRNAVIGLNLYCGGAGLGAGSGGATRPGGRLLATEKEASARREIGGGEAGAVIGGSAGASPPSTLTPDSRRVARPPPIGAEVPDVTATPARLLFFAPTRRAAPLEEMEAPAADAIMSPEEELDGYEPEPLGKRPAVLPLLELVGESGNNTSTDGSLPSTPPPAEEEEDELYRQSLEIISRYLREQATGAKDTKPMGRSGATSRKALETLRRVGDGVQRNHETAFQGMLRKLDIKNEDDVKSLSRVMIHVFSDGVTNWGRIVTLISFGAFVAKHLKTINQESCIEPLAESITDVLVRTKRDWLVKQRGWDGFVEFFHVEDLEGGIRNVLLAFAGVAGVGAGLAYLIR

Regarding `CN1CCc2cccc3c2[C@@H]1Cc1ccc(O)c(O)c1-3`, the EC50 (commonly the concentration that produces a half-maximal response) is 38.6 µM.
The compound `CCOCCCNc1nc(S)nc2cc(OC)c(OC)cc12` came in with an EC50 under setting [1] of 2.54 µM.
Still for that read-out and setting: then `COCCNc1[nH]c(=S)nc2cc(OC)c(OC)cc12`, with 4.54 µM; and `CN1CCN(C2=C(Cl)C(=O)C(c3cnc(N4CCCCC4)s3)=C(Cl)C2=O)CC1`, with 0.7 µM.
The same measure, in the same setting: then `CCOC(=O)c1ccc(Nc2nc(C(=O)OCC)nc3ccccc23)cc1`, with 4.52 µM; and `CCOCCCn1c(N)c(C(=O)Nc2sc3c(c2C(=O)OC)CCCC3)c2nc3ccccc3nc21`, with 1.85 µM.
In turn, `CCN1C(=O)/C(=C/C=C2\C=CN(CC)c3ccccc32)SC1=S` yielded an EC50 under setting [1] of 15.8 µM.
Same read-out and setting: then `Cc1ccc(-c2ccc(/C=C/C(=O)c3ccccc3)o2)cc1`, with 13.2 µM.
`CCC(/C=C1\Sc2ccc(OC)cc2N1CCO)=C\c1sc2ccc(OC)cc2[n+]1CCO` returned a concentration for a half-maximal effect (EC50) of 19.3 µM.
In the case of `O=S1(=O)N=C(N(CCO)N=C/C=C/c2ccccc2)c2ccccc21`, the 50% effective concentration (EC50) under setting [1] was 20.9 µM. This counts as double-digit micromolar.
As for `COc1ccc(-n2c(=O)c3ccccc3c3ccccc3c2=O)c(OC)c1`, under setting [1], a half-maximal response (EC50) required 26.9 µM.
In turn, `Cc1nc2ncccn2c1-c1csc(Nc2ccc(O)cc2)n1` yielded an EC50 of 0.39 µM. In other words, the sub-micromolar range.
Regarding `COc1cc2nc(=S)n(CCCN3CCOCC3)c(N)c2cc1OC`, the EC50 under setting [1] came to 6.14 µM.
In the case of `CN(C)c1ncc(C2=C(Cl)C(=O)C(N3CCCC3)=C(Cl)C2=O)s1`, the EC50 under setting [1] is 3.71 µM.
With `c1ccc(-c2nc(N3CCOCC3)[s+]n2-c2ccccc2)cc1`, the response was half-maximal at 9.74 µM (EC50).
Under setting [1], `O=C(Nc1ccc2nc(-c3ccco3)c(-c3ccco3)nc2c1)N1CCN(c2ccccn2)CC1` returned an EC50 of 10.9 µM.
Same read-out and setting: then `O=C(c1ccccc1)c1ccc2nc(-c3ccco3)c(-c3ccco3)nc2c1`, with 45.4 µM.
Still for that read-out and setting: then `COCCNC(=S)Nc1cc(OC)c(OC)cc1C#N` [1-(2-cyano-4,5-dimethoxy-phenyl)-3-(2-methoxyethyl)thiourea], with 7.11 µM.
On to `Cc1ccc(C(=O)/C=C/c2ccc(-c3ccc(C)cc3)o2)cc1` [1-p-Tolyl-3-(5-p-tolyl-furan-2-yl)-propenone], for which the EC50 under setting [1] was 2.61 µM.
The same measure, in the same setting: then `O=C(NCc1ccccc1)c1ccc2nc(-c3ccco3)c(-c3ccco3)nc2c1` [2,3-bis(furan-2-yl)-N-(phenylmethyl)quinoxaline-6-carboxamide], with 7.82 µM.
On the same count and under the same terms, then `O=C(Nc1ccccc1)c1ccc2nc(-c3ccco3)c(-c3ccco3)nc2c1` [2,3-di-2-furyl-N-phenyl-6-quinoxalinecarboxamide], with 39.6 µM.
As for `O=C(CSc1ccc2nnc(-c3ccccn3)n2n1)Nc1nccs1` [2-[[3-(2-pyridinyl)-[1,2,4]triazolo[4,3-b]pyridazin-6-yl]thio]-N-(2-thiazolyl)acetamide], the EC50 under setting [1] was determined as 11.8 µM.
Consider `O=C(/C=C/c1ccccc1Cl)c1ccccc(=O)c1O` [3-[(E)-3-(2-chlorophenyl)prop-2-enoyl]-2-oxidanyl-cyclohepta-2,4,6-trien-1-one], for which a half-maximal response under setting [1] (EC50) required 19.4 µM.
On the same count and under the same terms, then `Cc1nc2ncccn2c1-c1csc(Nc2ccccc2)n1` [4-(2-methyl-3-imidazo[1,2-a]pyrimidinyl)-N-phenyl-2-thiazolamine], with 8.97 µM.
The same measure, in the same setting: then `Cc1cc(C)nc(SCc2cc(=O)c(OC(=O)c3ccc(Cl)c([N+](=O)[O-])c3)co2)n1` [4-chloro-3-nitrobenzoic acid [6-[[(4,6-dimethyl-2-pyrimidinyl)thio]methyl]-4-oxo-3-pyranyl] ester], with 5.92 µM; and `COc1cc2nc(=S)[nH]c(NCC3CCCO3)c2cc1OC` (stereo unspecified) [6,7-dimethoxy-4-(2-oxolanylmethylamino)-1H-quinazoline-2-thione], with 1.9 µM.
Still for that read-out and setting: then `COc1ccc(C2=Nn3c(nnc3-c3ccco3)SC2)cc1OC` [6-(3,4-Dimethoxy-phenyl)-3-furan-2-yl-7H-[1,2,4]triazolo[3,4-b][1,3,4]thiadiazine], with 2.94 µM; and `CN(N=C/C=C/c1ccccc1)C1=NS(=O)(=O)c2ccccc21` [(1E,2E)-3-phenylacrylaldehyde (1,1-dioxido-1,2-benzisothiazol-3-yl)(methyl)hydrazone], with 5.53 µM.
For the compound `COc1cc(CN=Nc2nn3cnnc3c3ccccc23)ccc1O` [(4E)-2-methoxy-4-[[2-([1,2,4]triazolo[3,4-a]phthalazin-6-yl)hydrazinyl]methylidene]cyclohexa-2,5-dien-1-one], the EC50 was 5.05 µM.
In turn, `O=C1/C(=C\c2ccc(-c3ccccc3Cl)o2)SC(=S)N1CC1CCCO1` (stereo unspecified) [(5E)-5-[[5-(2-chlorophenyl)furan-2-yl]methylidene]-3-(oxolan-2-ylmethyl)-2-sulfanylidene-1,3-thiazolidin-4-one] had an EC50 under setting [1] of 2.14 µM.
In the case of `O=C(/C=C\c1ccc(-c2ccccc2)o1)c1ccccc1` [(Z)-1-phenyl-3-(5-phenyl-2-furanyl)-2-propen-1-one], the EC50 under setting [1] is 20.7 µM. Against the preceding compound, the EC50 is about 9.7-fold higher.
In turn, `Cc1cc(-c2nnc3n2N=C(c2ccc(-c4ccccc4)cc2)CS3)[nH]n1` [MLS000082991] showed an EC50 under setting [1] of 9.39 µM.
Same read-out and setting: then `Cc1cc2n(c1)CCn1c(C)ccc1-2` [MLS000104384], with 21 µM; and `Clc1nc(NCc2cccnc2)nc(N2CCOCC2)n1` [MLS000121154], with 16.9 µM; and `CCCCNc1[nH]c(=S)nc2cc(OC)c(OC)cc12` [MLS000520261], with 1.04 µM.
Under setting [1], `COCCCn1c(N)c(C(=O)Nc2sc3c(c2C(=O)OC)CCCC3)c2nc3ccccc3nc21` [MLS000595323] gave an EC50 of 3.12 µM. Against the preceding compound, the EC50 is about 3-fold higher.
On to `COc1cc2nc(=S)[nH]c(NCCc3ccc(S(N)(=O)=O)cc3)c2cc1OC` [MLS000674601], for which, under setting [1], the EC50 came to 0.36 µM.
`COc1ccc(C)cc1-n1c(=O)c2ccccc2c2ccccc2c1=O` [MLS000682999] displayed an EC50 under setting [1] of 16 µM.
The same measure, in the same setting: then `Fc1ccc(C2=Nc3cccc4cccc(c34)N2)cc1` [MLS000687139], with 10.5 µM; and `Cc1ccnc(SCc2cc(=O)c(OC(=O)c3ccc(Cl)c([N+](=O)[O-])c3)co2)n1` [MLS000696790], with 39.5 µM; and `COc1ccc(/C=C/C(=O)c2cc(Br)ccc(=O)c2O)cc1` [MLS000702099], with 33.2 µM.
Same read-out and setting: then `CCOC(=O)c1c(O)nc2ccc(Cl)c3c2c1-c1ccccc1C3=O` [MLS000704595], with 9.29 µM.
In the case of `COc1cccc2c(SCC(=O)NN=Cc3ccc(O)cc3O)cc(C)nc12` [N'-[(E)-(2-hydroxy-4-oxo-1-cyclohexa-2,5-dienylidene)methyl]-2-[(8-methoxy-2-methyl-4-quinolinyl)thio]acetohydrazide], the EC50 was determined as 29 µM.
Consider `c1ccc(Nc2cccc(Nc3ccccc3)n2)cc1` [N,N'-diphenyl-2,6-pyridinediamine], for which it took 12.2 µM to reach a half-maximal effect under setting [1] (EC50).
In the case of `COc1cc(C=NNC(=O)CN(Cc2ccco2)S(=O)(=O)c2ccccc2)ccc1O` [N-(2-furanylmethyl)-N-[2-[[(E)-(3-methoxy-4-oxo-1-cyclohexa-2,5-dienylidene)methyl]hydrazo]-2-oxoethyl]benzenesulfonamide], the midpoint of the response, the EC50, lay at 11.4 µM. In other words, the double-digit micromolar range.
As for `Cc1cccc(OCC(=O)NCC(=O)NN=Cc2cc(Br)ccc2OCc2ccccc2)c1` [N-[(5-bromanyl-2-phenylmethoxy-phenyl)methylideneamino]-2-[2-(3-methylphenoxy)ethanoylamino]ethanamide], the EC50 under setting [1] is 7.78 µM.
For `COCCCNc1nc(S)nc2cc(OC)c(OC)cc12` [SMR000026607], under setting [1], the EC50 turned out to be 1.74 µM.
Same read-out and setting: then `Cc1cc2nn(-c3cccc4ccccc34)nc2cc1N` [SMR000076237], with 1.75 µM.
For `C#CCn1cc(C=C2C(=O)c3ccccc3C2=O)c2ccccc21` [SMR000196125], under setting [1], the EC50 came out at 16.3 µM.
Still for that read-out and setting: then `CN(N=Cc1cccnc1)C1=NS(=O)(=O)c2ccccc21` [SMR000207578], with 20.6 µM; and `Cc1ccc(C=NNC(=O)CSc2nnc(-c3ccc(Cl)cc3)n2-c2ccccc2)o1` [SMR000218122], with 5.71 µM.
On to `Cc1ccc(-c2nc(N3CCOCC3)s[n+]2-c2ccccc2)cc1` [SMR000225370], for which the midpoint of the response, the EC50, lay at 2.04 µM.
With `COc1ccc(OC)c(-n2c(=O)c3ccccc3c3ccccc3c2=O)c1` [SMR000236434], the EC50 under setting [1] is 16.7 µM. In other words, the double-digit micromolar range.
In turn, `Nc1c(C(=O)NCC2CCCO2)sc2nc3c(c(-c4ccco4)c12)CC/C3=C\c1ccco1` (stereo unspecified) [SMR000259502] displayed a 50% effective concentration (EC50) of 6 µM.
Same read-out and setting: then `Nc1c(C(=O)NC2CC2)sc2nc3c(c(-c4ccco4)c12)CC/C3=C/c1ccco1` [SMR000259554], with 5.86 µM.
Consider `O=C1c2ccccc2-c2onc3ccc(N4CCCC4)c1c23` [SMR000279741], for which the EC50 under setting [1] turned out to be 69.7 µM.
For the compound `Cc1nnc2ccc(-c3cccc(NC(=O)c4ccco4)c3)nn12` [SMR000324305], the half-maximal effective concentration (EC50) was determined as 5.76 µM.
Same read-out and setting: then `CCN1/C(=C/C(C)=C/c2sc3ccccc3[n+]2CC)Sc2ccccc21` [SMR000354813], with 41.2 µM.
Take `Cc1ccnc(Nc2nc(-c3c(C)nc4sccn34)cs2)c1` [[4-(6-Methyl-imidazo[2,1-b]thiazol-5-yl)-thiazol-2-yl]-(4-methyl-pyridin-2-yl)-amine]: under setting [1], it took 16.7 µM to reach a half-maximal effect (EC50).
Still for that read-out and setting: then `CCOC(=O)c1nc(Nc2ccc(C(=O)OC)cc2)c2ccccc2n1` [ethyl 4-(4-methoxycarbonylanilino)quinazoline-2-carboxylate], with 14.7 µM.
The same measure, in the same setting: then `CN(N=Cc1ccncc1)C1=NS(=O)(=O)c2ccccc21` [isonicotinaldehyde (1,1-dioxido-1,2-benzisothiazol-3-yl)(methyl)hydrazone], with 2.74 µM.
